Assay: Solubility of paclitaxel in the hydrophilic liquid core solvents
Settings: solvents such as DMSO and DENA

Structure (SMILES): CC(=O)O[C@H]1C(=O)[C@@]2(C)[C@H]([C@H](OC(=O)c3ccccc3)[C@]3(O)C[C@H](OC(=O)[C@H](O)[C@@H](NC(=O)c4ccccc4)c4ccccc4)C(C)=C1C3(C)C)[C@]1(OC(C)=O)CO[C@@H]1C[C@@H]2O [paclitaxel]
- concentration at which the drug may be dissolved in liquid core: 10-60 weight percent
